In patent US6812377B2, “Genetic engineering of syringyl-enriched lignin in plants” (Board of Control of Michigan Technological University, priority 2000, dated 2004):

What was measured:
[1] = biological target: recombinant PtCAD protein (Populus tremuloides, UniProt Q9M632); assay: Kinetic properties of the recombinant PtCAD protein (HPLC-UV/MS); assay type: biochemical; conditions: substrate of PtCAD; relative, coniferaldehyde = 100
Procedure: (§1) To characterize the enzyme pH optima, the substrate and recombinant PtCAD or PtSAD protein concentrations described above were used in sodium phosphate buffers, pH 5 to 8.5. […] For inhibition kinetics, the PtCAD-mediated reduction of sinapaldehyde (1 to 200 μM) was assayed in the presence of 1 to 5 μM coniferaldehyde, and the PtSAD-catalyzed reduction of coniferaldehyde (1 to 200 μM) was assayed in the presence of 1 to 5 μM sinapaldehyde. All reactions were terminated by the addition of 10 μL of 6 N HCI (to bring the pH to 2) and 500 ng of internal standard o-coumaric acid and analyzed by HPLC-UV/MS. An aliquot of 100 μL of reaction mixture was injected directly onto a Supelcosil LC-ABZ column (15 cm×4.6 mm×5 μm; Supelco, Bellefonte, Pa.) with automatic sample injection and separated isocratically with a Hewlett-Packard (HP) 1100 liquid chromatography system at 40° C. and a flow rate of 0.25 mL/min. […] The reaction products were identified and confirmed by comparing the ion fragmentation patterns of the product and the authentic standard in MS scanning mode at 70 V. The product quantity and Km, Vmax, kcat, and apparent inhibition constant (Ki) values (means±SE) were determined as described (Osakabe et al., 1999; Li et al., 2000). The results of the inhibition kinetics for both the CAD enzyme (i.e. Table 2) and the SAD enzyme (i.e., Table 3) using a variety of substrates are illustrated below.

[2] = biological target: T1, PtCAD (recombinant coniferyl alcohol dehydrogenase, GenBank AF217957, C-terminal His tag, expressed in E. coli BL21(DE3)) (Populus tremuloides, UniProt Q9M632); assay: Inhibition kinetics of PtCAD: PtCAD-mediated reduction of sinapaldehyde in the presence of coniferaldehyde, HPLC-UV/MS (FIG. 6); assay type: biochemical, Populus tremuloides (quaking aspen); conditions: coniferaldehyde (1 to 5 μM) as inhibitor of PtCAD-mediated reduction of sinapaldehyde (1 to 200 μM); 500 μM NADPH; 1.2 μg purified recombinant PtCAD; pH 8.0; 4 min; 30° C.; read-out: apparent inhibition constant (Ki)
T1 sequence (Q9M632 1-357): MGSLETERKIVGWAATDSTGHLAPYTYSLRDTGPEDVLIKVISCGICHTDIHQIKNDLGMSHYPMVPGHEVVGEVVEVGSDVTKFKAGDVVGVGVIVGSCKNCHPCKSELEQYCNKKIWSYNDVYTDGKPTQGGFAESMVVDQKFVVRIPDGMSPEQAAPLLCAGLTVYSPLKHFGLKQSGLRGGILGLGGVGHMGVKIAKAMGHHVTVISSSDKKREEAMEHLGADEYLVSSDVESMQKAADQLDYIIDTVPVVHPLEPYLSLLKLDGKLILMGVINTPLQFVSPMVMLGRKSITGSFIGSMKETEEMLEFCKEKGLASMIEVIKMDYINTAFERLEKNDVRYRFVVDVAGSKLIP
Description: FIG. 6 illustrates inhibition kinetics of PtCAD and PtSAD;
A guaiacyl pathway gene encoding coniferyl alcohol dehydrogenase (CAD, FIG. 1) from Populus tremuloides (GenBank #AF217957) was first cloned. This cDNA was designated as PtCAD (GenBank #AF217957). E. coli-expressed recombinant PtCAD protein was characterized for its catalytic activity with coniferaldehyde and sinapaldehyde. Because monolignol biosynthetic pathway intermediates are present together in lignifying tissues (Osakabe et al., 1999; Li et al. 2000), the PtCAD enzyme activity with a mixture of coniferaldehyde and sinapaldehyde was assayed. As shown in FIG. 5 (a) and (c), the reaction mixture was separated by HPLC after the enzyme reaction. […] Thus, PtCAD has a specific catalytic reaction function with coniferaldehyde for the biosynthesis of guaiacyl monolignol, coniferyl alcohol (FIG. 1). […]
For normal and inhibition kinetic analyses, the reaction time was 4 min and pH was 8.0 for PtCAD (1.2 μg of purified recombinant protein) and 7.0 for PtSAD (0.1 μg). […] All reactions were terminated by the addition of 10 μL of 6 N HCI (to bring the pH to 2) and 500 ng of internal standard o-coumaric acid and analyzed by HPLC-UV/MS. […]

[3] = biological target: recombinant PtSAD protein (Populus tremuloides, UniProt Q94G59); assay: Kinetic properties of the recombinant PtSAD protein (HPLC-UV/MS); assay type: biochemical; conditions: substrate of PtSAD; relative, sinapaldehyde = 100
Procedure: as §1

recombinant PtSAD protein, sequence (Q94G59 entry or part of it): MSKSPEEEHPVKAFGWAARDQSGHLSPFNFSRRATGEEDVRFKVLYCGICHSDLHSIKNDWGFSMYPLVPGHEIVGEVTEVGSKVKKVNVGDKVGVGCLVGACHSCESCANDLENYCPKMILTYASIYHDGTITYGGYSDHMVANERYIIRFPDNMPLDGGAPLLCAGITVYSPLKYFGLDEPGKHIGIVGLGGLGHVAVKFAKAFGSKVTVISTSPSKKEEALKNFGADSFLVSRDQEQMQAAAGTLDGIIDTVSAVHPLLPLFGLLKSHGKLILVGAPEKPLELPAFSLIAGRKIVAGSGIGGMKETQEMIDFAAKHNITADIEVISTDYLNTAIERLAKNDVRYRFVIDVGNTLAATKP

`COc1cc(/C=C/C=O)ccc1O` [Coniferaldehyde] was tested, and the Vmax/Km [1] was 100%, the Ki [2] was 1.7 µM and the Vmax/Km [3] was 26.6%.
